{"source": "patent US20090325863A1", "about": "“Somatostatin analogs and IGF-I inhibition for breast cancer prevention” (priority 2008, published 2009)", "key": {"mammary development": {"system": "mammary development", "details": "rats; Ruan et al (2006); cited from earlier work"}, "Factor VIII": {"system": "Factor VIII", "assay": "Factor VIII immunostaining in mammary glands of normally developing rats", "assay_type": "in vivo, rat", "details": "28 day old rats treated from day 21; gland cells and mast cells", "text": "They were found in both gland cells and mast cells."}, "[1]": {"system": "hyperplastic lesions, LCIS and DCIS of human mammary gland", "assay": "Proof of principle clinical trial, biopsies before and after treatment (Ki67, TUNEL)", "assay_type": "in vivo", "text": "Background: Antiestrogens or aromatase inhibitors are used for breast cancer chemoprevention. These treatments cause unpleasant side effects including hot flashes and vaginal dryness. We have previously shown that IGF-I is required to permit estrogen and progesterone action in the mammary gland. […] Menopausal symptoms would not likely to occur with SOM230 since estrogen is not lowered. Material and Methods: We have approached this issue in several ways. 1) We developed a model of hyperplasia in hypophysectomized and oophorectomized female rats. Hyperplasia was induced by treatment with 600 mcg hGH and follicular phase concentrations of estradiol. Hyperplasia was assessed histologically in sections of mammary gland. 2) To assess translatability to humans we assessed cell proliferation and apoptosis in normal human breast from reduction mammoplasties and samples of usual hyperplasia. 3) We also determined availability of SST receptors in samples of atypical ductal hyperplasia and DCIS, and 4) We have begun to determine whether SOM230 will prevent hyperplasia in humans at risk for breast cancer as it does in rats.\nA proof of principle clinical trial is underway to further confirm whether SOM230 inhibits cell proliferation and increases apoptosis in human mammary gland as it does in rats. Data is presently available on 11 enlisted subjects. All patients had atypical hyperplasia on core biopsy and were given 600 ug SOM230 twice daily by injection. Data is available on 8 patients who had forms of hyperplasia that increase the likelihood of developing breast cancer. […] The effect of SOM230 on apoptosis and cell proliferation in hyperplastic lesions in the 8 patients is graphed in FIG. 17. This was also true in 2 cases of LCIS, a pre-cancerous condition, and one case of ductal carcinoma in situ, a cancerous situation. Apoptosis and cell proliferation is graphed for the 2 lobular hyperplasia patients in FIG. 18. FIG. 19 provides a DCIS patient sample cell staining for TUNEL and Ki67 before and after SOM230 administration. DCIS is a very common type of noninvasive breast cancer in women. Thus, human beings respond to SOM230 by inhibiting IGF-I action in the mammary gland. Taken together with our data on relative effects of SOM230 and Tamoxifen our data provide evidence that SOM230 will be at least as effective in preventing or treating breast cancer as Tamoxifen."}, "SSTR-3": {"biological_target": "SSTR-3 (Homo sapiens, UniProt P32745)", "sequence (P32745 whole entry, species assumed)": "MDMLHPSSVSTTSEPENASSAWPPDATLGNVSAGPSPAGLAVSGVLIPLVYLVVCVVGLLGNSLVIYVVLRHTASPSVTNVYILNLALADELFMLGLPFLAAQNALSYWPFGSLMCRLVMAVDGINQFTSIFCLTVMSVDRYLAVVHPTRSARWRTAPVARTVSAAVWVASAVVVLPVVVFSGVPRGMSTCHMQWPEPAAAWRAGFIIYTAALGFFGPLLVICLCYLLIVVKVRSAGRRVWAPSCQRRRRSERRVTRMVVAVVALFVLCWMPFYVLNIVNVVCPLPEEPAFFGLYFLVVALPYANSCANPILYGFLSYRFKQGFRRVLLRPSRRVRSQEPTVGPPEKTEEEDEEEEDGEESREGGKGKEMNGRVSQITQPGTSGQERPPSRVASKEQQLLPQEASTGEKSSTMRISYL", "details": "cited from earlier work"}, "[2]": {"system": "hGH induced TEB formation", "assay": "Hyperplastic terminal endbuds (TEBs) in mammary gland whole mounts, hGH+E2 model", "assay_type": "in vivo, rat", "details": "for TEB area: Table 2, mean of 3 animals, hGH + E control 43.1 ± 2.9, P 0.002", "text": "At the end of 7 days one lumbar mammary gland was removed for whole mount analysis and the other for histological analysis. Hyperplastic TEBs were counted in the whole mounts. […] Representative photomicrographs of the whole mounts are provided in FIG. 5 and suppression by the different treatments is shown graphically in FIG. 6."}, "[3]": {"system": "TUNEL labeled cells in mammary gland", "assay": "Apoptosis by TUNEL staining in mammary gland, hGH+E2 model", "assay_type": "in vivo, rat", "details": "for % TUNEL labeled cells, DH structure Mod + mild / % TUNEL labeled cells, Normal gland: 3 animals, 7 days; for % TUNEL labeled cells, DH structure Mod + mild: hGH + E2 control 1.9 ± 0.2 (P < 0.002); for % TUNEL labeled cells, Normal gland: hGH + E2 control 2.3 ± 0.1 (P < 0.001); for apoptosis / cell death (in words): hGH+E2 model versus hGH+E2 control", "text": "We also looked at the effect of the various treatment regimens on apoptosis. GH+E2 inhibited apoptosis, with the results are as follows. […] The percent TUNEL labeled cells is depicted in TABLE 5 below."}, "[4]": {"details": "8 hyperplasia patients, 600 ug twice daily by injection, biopsy before/after"}, "[5]": {"details": "lobular carcinoma in situ patients (2 cases), excisional versus core biopsy"}}, "note": "“And” between values parts separate entries of the source, which are not always exact repeats. Equal values may be shown once. “Also recorded” adds a separate entry of the source. *1 amine or outer side, *2 acyl side, *3 side chain or, on linkers, in order; H or OH if unused. Where a SMILES comes first, the peptide text is derived from it. Side-chain parts run from the residue outwards. [ ]: non-standard residue; d: D form. The star is where a group is joined. Ethylenediamine = C(CN[*:2])N[*:1]; Hyp = O=C(O)[C@@H]1C[C@@H](O)CN1; Phg = N[C@H](C(=O)O)c1ccccc1; CO = O=C([*:1])[*:2]; Bn = c1ccc(C*)cc1"}
{"molecule": "NCCCC[C@@H]1NC(=O)[C@@H](Cc2c[nH]c3ccccc23)NC(=O)[C@H](c2ccccc2)NC(=O)[C@@H]2C[C@@H](OC(=O)NCCN)CN2C(=O)[C@H](Cc2ccccc2)NC(=O)[C@H](Cc2ccc(OCc3ccccc3)cc2)NC1=O", "note": "[SOM230] (cyclo([Hyp]([CO-Ethylenediamine])[Phg][dW]KY(Bn)F))", "values": [{"measurement": "IRS-1 phosphorylation in the mammary gland", "setting": "mammary development", "value": "reduction in IRS-1 phosphorylation"}, {"measurement": "mammary development", "setting": "mammary development", "value": "prevents mammary development"}, {"measurement": "expression of Factor VIII (immunostaining)", "setting": "Factor VIII", "value": "reduced expression"}, {"measurement": "apoptosis (TUNEL assay) in hyperplastic lesions", "setting": "[1]; [4]", "value": "increase in apoptosis"}, {"measurement": "cell proliferation (Ki67 assay) in hyperplastic lesions", "setting": "[1]; [4]", "value": "inhibition of cell proliferation"}, {"measurement": "apoptosis (TUNEL) in LCIS", "setting": "[1]; [5]", "value": "increased apoptosis"}, {"measurement": "cell proliferation (Ki67) in LCIS", "setting": "[1]; [5]", "value": "decreased cell proliferation"}, {"measurement": "affinity for SSTR-3", "setting": "SSTR-3", "value": "has affinity"}, {"measurement": "TEB area, individual animals", "setting": "[2]; Table 2, animal # 1-3, hGH + E controls 48549, 38496, 42285, listed as SOM", "value": "18816 and 13652 and 15356"}, {"measurement": "TEB area", "setting": "[2]", "value": "reduced"}, {"measurement": "TEB area", "setting": "[2]; listed as SOM", "value": "15.9 ± 1.5 (μm^2) × 10^3"}, {"measurement": "number of hyperplastic TEBs in whole mounts", "setting": "[2]; hGH+E2, 7 days, reduced from 86.5 (86) TEBs in hGH+E2 control", "value": 27.5}, {"measurement": "% TUNEL labeled cells, DH structure Mod + mild", "setting": "[3]", "value": "increase in apoptosis"}, {"measurement": "% TUNEL labeled cells, DH structure Mod + mild", "setting": "[3]; listed as SOM", "value": "5.5 ± 0.4", "unit": "%"}, {"measurement": "% TUNEL labeled cells, Normal gland", "setting": "[3]", "value": "increase in apoptosis"}, {"measurement": "% TUNEL labeled cells, Normal gland", "setting": "[3]; listed as SOM", "value": "6.5 ± 0.4", "unit": "%"}, {"measurement": "apoptosis / cell death (in words)", "setting": "[3]", "value": "increase in cell death; also recorded: increase in apoptosis; also recorded: more apoptosis"}, {"measurement": "apoptosis / cell death (in words)", "setting": "[3]; listed as SOM 230", "value": "increase in apoptosis"}]}
